# Values of other authors as cited in US20250009647A1, “PHARMACEUTICAL COMPOSITION” (priority 2021, published 2025).
# Legend:
# [1] = in water
# [2] = in DMSO
SMILES,pKa(H2O) [1],pKa(DMSO) [2]
O=C(O)C(=O)O [Oxalic acid],1.46,6.2
O=C(O)c1cc2ccccc2c(Cc2c(O)c(C(=O)O)cc3ccccc23)c1O [Pamoic acid],2.67,
NS(=O)(=O)O [Sulfamic acid],0.99,6.5
